Data on 89 sequences can be found in the supplement of paper PMC4314810.

± gives the standard deviation of the averaged measurements.

This series has as its system MCF7. Nature of the series: HRG-induced Akt activation (dPAkt = log2 pAkt/Akt HRG-stimulated minus log2 pAkt/Akt basal) (log2 ratio difference); higher = stronger HRG-induced Akt(T308) phosphorylation. Particulars: miRNA mimic concentration 10 nM; time after transfection 72 h; heregulin 10 ng/ml; stimulation time 1 h. The procedure, abridged: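 MCF7 cells were plated […] in 96-well plates and transfected in two biological replicates with a library of 879 miRNA mimics (10 nM final) using Lipofectamine RNAiMax; 72 h later they were stimulated for 1 h with 10 ng/ml heregulin-beta1 or left unstimulated. After fixation in 4% PFA, phospho-Akt(T308) and total Akt were measured by In-Cell Western on an Odyssey, with signals corrected for column-wise fixation decay. Heregulin-induced Akt activation is the stimulated minus unstimulated value of the log ratio of phospho-Akt to total Akt, averaged over replicates. That log ratio is log2(pAkt/Akt).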
Consider CUGUAUGCCCUCACCGCUCA, for which the “HRG-induced Akt activation (log2)” value was determined as 2.27 ± 0.32. Take CUGUGCGUGUGACAGCGGCUGA: the “HRG-induced Akt activation (log2)” value worked out at 0.692 ± 0.043. As to CUGUUGCCACUAACCUCAACCU, the “HRG-induced Akt activation (log2)” value was determined as 1.07 ± 0.11. As for CUUAGCAGGUUGUAUUAUCAUU, the “HRG-induced Akt activation (log2)” value was determined as 1.81 ± 0.098.

Turning to CUUAUCAGAUUGUAUUGUAAUU, the “HRG-induced Akt activation (log2)” value was 1.87 ± 0.024. For CUUAUGCAAGAUUCCCUUCUAC the value was 1.85 ± 0.23; for CUUCCUCGUCUGUCUGCCCC, 1.02 ± 0.055. CUUCUUGUGCUCUAGGAUUGU: the “HRG-induced Akt activation (log2)” value was found to be 1.13 ± 0.024. For CUUGGCACCUAGCAAGCACUCA the value was 1.45 ± 0.58. Regarding CUUGGUUCAGGGAGGGUCCCCA, the “HRG-induced Akt activation (log2)” value came to 1.58 ± 0.43. For CUUUCAGUCAGAUGUUUGCUGC the value was 1.67 ± 0.24; for CUUUCAGUCGGAUGUUUACAGC, 1.62 ± 0.098. For CUUUCAGUCGGAUGUUUGCAGC, the “HRG-induced Akt activation (log2)” value turned out to be 1.75 ± 0.2. For CUUUUUGCGGUCUGGGCUUGC the value was 2.31 ± 0.28; for GAAAGCGCUUCCCUUUGCUGGA, 1.63 ± 0.082. GAAAGCGCUUCUCUUUAGAGG: the “HRG-induced Akt activation (log2)” value was determined as 1.51 ± 0.33. Turning to GAAAGUGCUUCCUUUUAGAGGC, the “HRG-induced Akt activation (log2)” value came to 0.832 ± 0.68. As to GAAAUCAAGCGUGGGUGAGACC, the “HRG-induced Akt activation (log2)” value was 1.77 ± 0.15.

On to GAACGCCUGUUCUUGCCAGGUGG, for which the “HRG-induced Akt activation (log2)” value was 1.4 ± 0.093. Consider GAACGCGCUUCCCUAUAGAGGGU, for which the “HRG-induced Akt activation (log2)” value is 1.42 ± 0.13. Take GAACGGCUUCAUACAGGAGUU: the “HRG-induced Akt activation (log2)” value is 1.67 ± 0.12. On to GAAGGCGCUUCCCUUUAGAGCG, for which the “HRG-induced Akt activation (log2)” value is 1.1 ± 0.5. As for GAAGGCGCUUCCCUUUGGAGU, the “HRG-induced Akt activation (log2)” value worked out at 1.41 ± 0.095. The result for GAAGUGCUUCGAUUUUGGGGUGU reads 1.12 ± 0.22; that for GAAGUGUGCCGUGGUGUGUCU, 2.03 ± 0.31; that for GAAGUUGUUCGUGGUGGAUUCG, 2.11 ± 0.022.

As to GAAUGUUGCUCGGUGAACCCCU, the “HRG-induced Akt activation (log2)” value was 1.33 ± 0.039.

On to GACACGGGCGACAGCUGCGGCCC, for which the “HRG-induced Akt activation (log2)” value stood at 1.03 ± 0.89. The result for GACCUGGACAUGUUUGUGCCCAGU reads 1.71 ± 0.12; that for GACUAUAGAACUUUCCCCCUCA, 1.07 ± 0.064; that for GACUGACACCUCUUUGGGUGAA, 1.49 ± 0.18. For the sequence GAGCCAGUUGGACAGGAGC, the “HRG-induced Akt activation (log2)” value was 1.77 ± 0.38.

Consider GAGCUUAUUCAUAAAAGUGCAG, for which the “HRG-induced Akt activation (log2)” value worked out at 1.76 ± 0.036. For the sequence GAGGGUCUUGGGAGGGAUGUGAC, the “HRG-induced Akt activation (log2)” value was 1.44 ± 0.081.

As to GAGGGUUGGGUGGAGGCUCUCC, the “HRG-induced Akt activation (log2)” value turned out to be 1.47 ± 0.36. Regarding GAGUGCCUUCUUUUGGAGCGUU, the “HRG-induced Akt activation (log2)” value stood at 1.04 ± 0.043. On to GAUGAGCUCAUUGUAAUAUGAG, for which the “HRG-induced Akt activation (log2)” value amounted to 1.71 ± 0.24. For GAUGAUGAUGGCAGCAAAUUCUGAAA the value was 1.87 ± 0.33. With GAUGAUGCUGCUGAUGCUG, the “HRG-induced Akt activation (log2)” value was determined as 1.07 ± 0.52. For GAUUAGGGUGCUUAGCUGUUAA the value was 1.67 ± 0.28; for GAUUGCUCUGCGUGCGGAAUCGAC, 1.24 ± 0.29. For GAUUUCAGUGGAGUGAAGUUC, the “HRG-induced Akt activation (log2)” value amounted to 1.744 ± 0.0085.

On to GCAAAGCACACGGCCUGCAGAGA, for which the “HRG-induced Akt activation (log2)” value worked out at 1.27 ± 0.08. For GCAGCAGAGAAUAGGACUACGUC, the “HRG-induced Akt activation (log2)” value worked out at 1.7 ± 0.032. Take GCAGGAACUUGUGAGUCUCCU: the “HRG-induced Akt activation (log2)” value was 1.8 ± 0.32. On to GCAGUCCAUGGGCAUAUACAC, for which the “HRG-induced Akt activation (log2)” value stood at 1.66 ± 0.12. As for GCAUGGGUGGUUCAGUGG, the “HRG-induced Akt activation (log2)” value is 1.52 ± 0.11.

GCCCAAAGGUGAAUUUUUUGGG: the “HRG-induced Akt activation (log2)” value is 1.33 ± 0.1.

For GCCCCUGGGCCUAUCCUAGAA, the “HRG-induced Akt activation (log2)” value turned out to be 1.25 ± 0.56. Take GCCCGCGUGUGGAGCCAGGUGU: the “HRG-induced Akt activation (log2)” value stood at 1.39 ± 0.14.

In the case of GCCCUCCGCCCGUGCACCCCG, the “HRG-induced Akt activation (log2)” value was found to be 1.17 ± 0.14. For the sequence GCCUGCUGGGGUGGAACCUGGU, the “HRG-induced Akt activation (log2)” value worked out at 1.81 ± 0.22. As to GCGACCCACUCUUGGUUUCCA, the “HRG-induced Akt activation (log2)” value is 1.8 ± 0.034. The result for GCGACCCAUACUUGGUUUCAG reads 1.44 ± 0.25; that for GCGAGGACCCCUCGGGGUCUGAC, 1.05 ± 0.48. As for GCUACUUCACAACACCAGGGCC, the “HRG-induced Akt activation (log2)” value was found to be 1.67 ± 0.3. On to GCUAGUCCUGACUCAGCCAGU, for which the “HRG-induced Akt activation (log2)” value was 2.19 ± 0.26.

On to GCUAUUUCACGACACCAGGGUU, for which the “HRG-induced Akt activation (log2)” value turned out to be 1.693 ± 0.0017. For GCUGACUCCUAGUCCAGGGCUC, the “HRG-induced Akt activation (log2)” value was 1.53 ± 0.099. GCUGCGCUUGGAUUUCGUCCCC: the “HRG-induced Akt activation (log2)” value worked out at 1.62 ± 0.098. For GCUGGGCAGGGCUUCUGAGCUCCUU the value was 1.68 ± 0.082.

Turning to GCUGGUUUCAUAUGGUGGUUUAGA, the “HRG-induced Akt activation (log2)” value turned out to be 1.82 ± 0.049. As to GGAGAAAUUAUCCUUGGUGUGU, the “HRG-induced Akt activation (log2)” value is 0.932 ± 0.022.

Regarding GGAGACGCGGCCCUGUUGGAGU, the “HRG-induced Akt activation (log2)” value came to 1.33 ± 0.052. The result for GGAGGGGUCCCGCACUGGGAGG reads 1.82 ± 0.057; that for GGAUAUCAUCAUAUACUGUAAG, 1.6 ± 0.044. With GGAUUCCUGGAAAUACUGUUCU, the “HRG-induced Akt activation (log2)” value came out at 1.2 ± 0.74. Regarding GGCAGGUUCUCACCCUCUCUAGG, the “HRG-induced Akt activation (log2)” value worked out at 2.11 ± 0.13.

As to GGCGGAGGGAAGUAGGUCCGUUGGU, the “HRG-induced Akt activation (log2)” value was found to be 1.52 ± 0.058. GGCUACAACACAGGACCCGGGC: the “HRG-induced Akt activation (log2)” value is 1.88 ± 0.32.

As to GGCUAGCAACAGCGCUUACCU, the “HRG-induced Akt activation (log2)” value was 0.933 ± 0.081. With GGGAGCCAGGAAGUAUUGAUGU, the “HRG-induced Akt activation (log2)” value was 1.82 ± 0.069. Consider GGGCGACAAAGCAAGACUCUUUCUU, for which the “HRG-induced Akt activation (log2)” value was found to be 1.56 ± 0.061. With GGGCGCCUGUGAUCCCAAC, the “HRG-induced Akt activation (log2)” value was determined as 1.62 ± 0.015. As to GGGGAGCUGUGGAAGCAGUA, the “HRG-induced Akt activation (log2)” value stood at 1.73 ± 0.21. Consider GGGGGUCCCCGGUGCUCGGAUC, for which the “HRG-induced Akt activation (log2)” value worked out at 1.7 ± 0.064. For GGGGUUCCUGGGGAUGGGAUUU, the “HRG-induced Akt activation (log2)” value amounted to 1.21 ± 0.3.

For the sequence GGGUGGGGAUUUGUUGCAUUAC, the “HRG-induced Akt activation (log2)” value turned out to be 1.16 ± 0.097.

With GGUCCAGAGGGGAGAUAGGUUC, the “HRG-induced Akt activation (log2)” value stood at 1.67 ± 0.24. As to GGUGCAGUGCUGCAUCUCUGGU, the “HRG-induced Akt activation (log2)” value turned out to be 1.28 ± 0.0016. As to GGUGGCCCGGCCGUGCCUGAGG, the “HRG-induced Akt activation (log2)” value was found to be 1.55 ± 0.26.

Turning to GGUUUGGUCCUAGCCUUUCUA, the “HRG-induced Akt activation (log2)” value is 1.47 ± 0.2. Regarding GUAGAGGAGAUGGCGCAGGG, the “HRG-induced Akt activation (log2)” value was found to be 1.33 ± 0.22.

In the case of GUAGAUUCUCCUUCUAUGAGUA, the “HRG-induced Akt activation (log2)” value was 1.35 ± 0.17. For GUCAGCGGAGGAAAAGAAACU, the “HRG-induced Akt activation (log2)” value amounted to 1.47 ± 0.037. In the case of GUCAUACACGGCUCUCCUCUCU, the “HRG-induced Akt activation (log2)” value is 0.922 ± 0.81. Regarding GUCCAGUUUUCCCAGGAAUCCCU, the “HRG-induced Akt activation (log2)” value was found to be 1.7 ± 0.2. The result for GUCCCUCUCCAAAUGUGUCUUG reads 0.988 ± 0.27; that for GUCCCUGUUCAGGCGCCA, 1.73 ± 0.15.
